# Source: patent publication US11466023B2, “Combination of a Mcl-1 inhibitor and a standard of care treatment for hematologic cancers, uses and pharmaceutical compositions thereof” (LES LABORATOIRES SERVIER, priority 2017, dated 2022)
# Where two headings read alike, the source gives them in different places.
# Legend:
# Nomo-1 AML cell line = assay: Single agent cell viability (CellTiterGlo); type: cell-based; settings: Homo sapiens, 72 h; Nomo-1, single agent, 3 days incubation, CellTiterGlo; read-out: IC50
# Protocol: (§1) Cell lines were cultured at 37° C. in a humidified atmosphere containing 5% CO2 and expanded in T-150 flasks. […] In order to analyse the activity of the compounds as single agents, cells were seeded and treated with nine 2-fold serial dilutions of each compound dispensed individually directly into the cell assay plates. […] All the experiments were performed in triplicates. Luminescence was quantified on a multipurpose plate reader. Single agent IC50s were calculated using standard four-parametric curve fitting.
# MOLM-13 AML cell line = assay: Single agent cell viability (CellTiterGlo); type: cell-based; settings: Homo sapiens, 72 h; MOLM-13, single agent, 3 days incubation, CellTiterGlo; read-out: IC50
# Protocol: as §1
# KG1 AML cell line = assay: Single agent cell viability (CellTiterGlo); type: cell-based; settings: 72 h; KG1, single agent, 3 days incubation, CellTiterGlo; read-out: IC50
# Protocol: as §1
# ML-2 AML cell line = assay: Single agent cell viability (CellTiterGlo); type: cell-based; settings: 72 h; ML-2, single agent, 3 days incubation, CellTiterGlo; read-out: IC50
# Protocol: as §1
# KG1a AML cell line = assay: Single agent cell viability (CellTiterGlo); type: cell-based; settings: Homo sapiens, KG-1a, 72 h; KG1a, single agent, 3 days incubation, CellTiterGlo; read-out: IC50
# Protocol: as §1
# OCI-AML3 AML cell line = assay: Single agent cell viability (CellTiterGlo); type: cell-based; settings: Homo sapiens, OCI-AML-3, 72 h; OCI-AML3, single agent, 3 days incubation, CellTiterGlo; read-out: IC50
# Protocol: as §1
# HL-60 AML cell line = assay: Single agent cell viability (CellTiterGlo); type: cell-based; settings: Homo sapiens, 72 h; HL-60, single agent, 3 days incubation, CellTiterGlo; read-out: IC50
# Protocol: as §1
# PL-21 AML cell line = assay: Single agent cell viability (CellTiterGlo); type: cell-based; settings: 72 h; PL-21, single agent, 3 days incubation, CellTiterGlo; read-out: IC50
# Protocol: as §1
# EOL-1 AML cell line = assay: Single agent cell viability (CellTiterGlo); type: cell-based; settings: Homo sapiens, EOL1, 72 h; EOL-1, single agent, 3 days incubation, CellTiterGlo; read-out: IC50
# Protocol: as §1
# MV4; 11 AML cell line = assay: Single agent cell viability (CellTiterGlo); type: cell-based; settings: Homo sapiens, 72 h; MV4; 11, single agent, 3 days incubation, CellTiterGlo; read-out: IC50
# Protocol: as §1
# THP-1 AML cell line = assay: Single agent cell viability (CellTiterGlo); type: cell-based; settings: Homo sapiens, 72 h; THP-1, single agent, 3 days incubation, CellTiterGlo; read-out: IC50
# Protocol: as §1
# Kasumi-1 AML cell line = assay: Single agent cell viability (CellTiterGlo); type: cell-based; settings: Homo sapiens, 72 h; Kasumi-1, single agent, 3 days incubation, CellTiterGlo; read-out: IC50
# Protocol: as §1
# GDM-1 AML cell line = assay: Single agent cell viability (CellTiterGlo); type: cell-based; settings: Homo sapiens, 72 h; GDM-1, single agent, 3 days incubation, CellTiterGlo; read-out: IC50
# Protocol: as §1
# [1] = system: mononuclear cells from AML patient samples; assay: Cell viability assay (Sytox blue flow cytometry) in primary AML samples; type: cell-based, human; settings: Homo sapiens, 48 h, combination at 1:1 ratio, read-out: 50% lethal concentration (LC50)
# Protocol: Bone marrow samples from patients with AML were collected after informed consent in accordance with guidelines approved by The Alfred Hospital Human research ethics committee.
# Mononuclear cells were isolated by density-gradient centrifugation Ficoll-Hypaque (GE Healthcare, Australia) density-gradient centrifugation and red cell lysis was performed using 0.156 M NH4Cl, 0.017 M Tris-HCl pH 7.2 as previously described (Rijal et al., Blood 2015, 125, 2815-2824). Cells were then re-suspended in phosphate-buffered saline containing 2% Fetal Bovine serum (FBS; Sigma, Australia). Mononuclear cells were then suspended in RPMI-1640 (GIBCO, Australia) medium containing penicillin and streptomycin (GIBCO) and heat inactivated fetal bovine serum 15% (Sigma). Cells were washed in phosphate-buffered saline (PBS) containing 2% FBS prior to use.
# Freshly purified mononuclear cells from AML patient samples were adjusted to a concentration of 2.5×10^5/mL and 100 μL of cells aliquoted per well into 96 well plates (Sigma). Cells were then treated with idarubicin and Compound 2 over a […] concentration range from 1 nM to 10 μM for 48 hours. For combinations assays, drugs were added at a 1:1 ratio from 1 nM to 10 μM and cells were incubated at 37° C. 5% CO2. Cells were then stained with Sytox blue nucleic acid stain (Invitrogen, Australia) and fluorescence measured by flow cytometric analysis using the LSR-II Fortessa (Becton Dickinson, Australia). FACSDiva software was used for data collection, and FlowJo software for analysis. Blast cells were gated using forward and side scatter properties. Viable cells excluding Sytox blue were determined at 6 concentrations for each drug and the 50% lethal concentration (LC50, in μM) determined.
compound,measurement,setting,value
"CC(=O)[C@]1(O)Cc2c(O)c3c(c(O)c2[C@@H](O[C@H]2C[C@H](N)[C@H](O)[C@H](C)O2)C1)C(=O)c1ccccc1C3=O [Idarubicin, idarubicin]",IC50,Nomo-1 AML cell line,28 nM
same,IC50,MOLM-13 AML cell line,3 nM
same,IC50,KG1 AML cell line,6 nM
same,IC50,ML-2 AML cell line,10 nM
same,IC50,KG1a AML cell line,10 nM
same,IC50,OCI-AML3 AML cell line,20 nM
same,IC50,HL-60 AML cell line,2 nM
same,IC50,PL-21 AML cell line,23 nM
same,IC50,EOL-1 AML cell line,2 nM
same,IC50,MV4; 11 AML cell line,1 nM
same,IC50,THP-1 AML cell line,24 nM
same,IC50,Kasumi-1 AML cell line,3 nM
same,IC50,GDM-1 AML cell line,8 nM
same,CC50,"[1]; Patient AML 6200840, 48 hours",384 nM
same,CC50,"[1]; Patient AML AH0131936, 48 hours",886 nM
same,CC50,"[1]; Patient AML AH0465385, 48 hours",5130 nM
same,CC50,"[1]; Patient AML AH0607688, 48 hours",593 nM
same,CC50,"[1]; Patient AML AH0979006, 48 hours",1.07 nM
same,CC50,"[1]; Patient AML AH1081582, 48 hours",184 nM
same,CC50,"[1]; Patient AML AH1228742, 48 hours",404000 nM
same,CC50,"[1]; Patient AML AH6120264, 48 hours",328 nM
same,CC50,"[1]; Patient AML AH6181414_2, 48 hours",3470 nM
same,CC50,"[1]; Patient AML AH6202849, 48 hours",2870 nM
same,CC50,"[1]; Patient AML AH6208160, 48 hours",1750 nM
same,CC50,"[1]; Patient AML AH6208654, 48 hours",308 nM
same,CC50,"[1]; Patient AML AH6210946, 48 hours",105 nM
same,CC50,"[1]; Patient AML AH6214498, 48 hours",1.11 nM
same,CC50,"[1]; Patient AML AH6217528, 48 hours",33.5 nM
same,CC50,"[1]; Patient AML AH6219953, 48 hours",4370 nM
same,CC50,"[1]; Patient AML AH6220847, 48 hours",14.4 nM
same,CC50,"[1]; Patient AML AH6223646, 48 hours",315 nM
same,CC50,"[1]; Patient AML AH6224104, 48 hours",192000 nM
same,CC50,"[1]; Patient AML AH6229985, 48 hours",1.38 nM
same,CC50,"[1]; Patient AML AH6607085, 48 hours",563 nM
same,CC50,"[1]; Patient AML AH6615742, 48 hours",2930 nM
same,CC50,"[1]; Patient AML AH6627892, 48 hours",2200 nM
